Assay results published in patent publication US20230277508A1, “USE OF COMPOUND AS CYP2E1 INHIBITOR” (SHANGHAI LING XI BIOTECHNOLOGY DEVELOPMENT CO., LTD., priority 2020, published 2023).
Marks after values point to notes of the source that are not given here.

Experiments:
[1] = tested on: DEN-induced rat liver damage; assay: DEN-induced rat liver damage model; type: in vivo, SD rat; details: plasma, vs model group
Description: Experimental method: An SD rat liver damage model was constructed through intermittent intraperitoneal injection of DEN. A model group was injected intraperitoneally with DEN at 50 mg/kg twice a week in the first 4 weeks and then once a week in the 5th to 8th weeks. An SMI0 intervention group, which was injected with DEN at the amount and the way the same as that in the model group, was divided into SMI0+DEN low-dose and high-dose groups and an SMI0 high-dose continuous administration group, where the SMI0+DEN low-dose and high-dose groups were intragastrically administered with the compound SMI0 at 30 mg/kg and 150 mg/kg 5 min before DEN administration each time, respectively; and the SMI0 high-dose continuous administration group was intragastrically administered with the compound SMI0 at 150 mg/kg every day from the 1st week to the 8th week. At the end of molding, blood was collected from the orbit, and plasma liver function indexes of rats were determined by an automatic biochemical analyzer (model group, n=10 rats; SMI0 compound low-dose group, n=21 rats; (150 mg/kg)^a, SMI0 compound+DEN high-dose group, n=28 rats; and (150 mg/kg)^b, SMI0 compound high-dose continuous administration group, n=24 rats].

[2] = tested on: Lewis lung cancer cells; assay: Direct effect on proliferation of Lewis lung cancer cells (CCK8); type: cell-based; details: up to 100 μmol/L, 24 h
Description: Experimental method: Lewis lung cancer cells and A549 lung cancer cells in a logarithmic growth phase each were selected and inoculated into a 96-well plate at a concentration of 1*10^5 cells/mL, then 100 μL of a basic medium including SMI0 at different concentrations (0 μmol/L, 0.16 μmol/L, 0.8 μmol/L, 4 μmol/L, 20 μmol/L, and 100 μmol/L) was added to each well, and 24 h later, 10 μL of a CCK8 reagent was added to each well; and the cells were further cultivated for 2 h, and an absorbance OD value of each well was determined at 450 nm by a microplate reader. 3 replicates were set for each well, and an average was taken. The proliferation activity was calculated based on the OD value.

[3] = tested on: H22 liver cancer cells; assay: Direct effect on H22 liver cancer cells; type: cell-based; details: up to 100 μmol/L, 24 h
Description: Experimental method: HepG2 liver cancer cells and H22 liver cancer cells in a logarithmic growth phase each were selected and inoculated into a 96-well plate at a concentration of 1*10^5 cells/mL, and then 100 μL of a basic medium including SMI0 at different concentrations (0 μmol/L, 0.16 μmol/L, 0.8 μmol/L, 4 μmol/L, 20 μmol/L, and 100 μmol/L) was added to each well; and 24 h later, the proliferation activity of HepG2 was determined by a CCK8 method, a migration ability of HepG2 was determined by wound-healing assay, and an apoptosis ability of HepG2 was determined by flow cytometry (FCM).

[4] = tested on: U251 cells / M2 microglial cells; assay: U251 cells co-cultivated with M2 microglial cells; type: cell-based, human; details: SMI0 50 μmol/L vs M2 microglial cell co-cultivation group, P<0.001
Description: Experimental method: 10 1-2 d newborn C57BL/6 WT mice and 6 CYP2E1^−/− mice were taken, primary microglial cells and astrocytes were collected and inoculated into 6-well plates, and 24 h later, culture supernatants were taken and co-cultivated with glioma cells. Experimental groups: control group; M2 model group; high-concentration, medium-concentration, and low-concentration SMI0 (50 μmol/L, 12.5 μmol/L, and 3.1 μmol/L) groups; and CYP2E1 gene-knockout group. 24 h later, supernatants were discarded; and […] and IL-13 each were added at 20 ng/mL to induce the transformation of microglial cells into the M2 type in the M2 model group and the high-concentration, medium-concentration, and low-concentration SMI0 groups, and different concentrations of SMI0 (50 μmol/L, 12.5 μmol/L, and 3.1 μmol/L) were also added in the intervention groups. The proliferation of glioma cells was determined by a CCK8 method, and an apoptosis proportion was determined by an Annexin V-FITC-PI apoptosis staining kit.

[5] = tested on: CFA-induced rheumatoid arthritis in rats; assay: CFA-induced rat rheumatoid arthritis model; type: in vivo, SD rat; details: for rat foot swelling alleviation rate: at 36 h
Description: Experimental method: An SD rat rheumatoid arthritis model was constructed with CFA (0.1 mL/rat). The SMI0 intervention group was divided into an ultra-low-dose group, a low-dose group, a medium-dose group, and a high-dose group, which were intragastrically administered with the compound SMI0 respectively at 1 mg/kg, 6 mg/kg, 30 mg/kg, and 150 mg/kg every day starting from two days before modeling; and the positive control group was intragastrically administered with celecoxib at 5 mg/kg. 10 animals were provided for each group. 1 d before administration of CFA to the rats, the above grouping and doses were adopted, and then the rats were administered once every day until the modeling was completed on day 10. Each rat was administered with CFA at a sole of a right hindfoot. A volume of each of the right hindfeet of rats was measured every day by a rat foot swelling measuring instrument (which was measured every 12 h in the first 3 days). A foot swelling rate of each rat was calculated according to a change of a right hindfoot volume of the rat relative to a hindfoot volume of the rat before the CFA administration at each time point, and a difference in foot swelling rate between groups of rats was analyzed.

[6] = tested on: hyperlipidemia and aortic atherosclerotic plaques in ApoE-/- mice; assay: ApoE-/- mouse hyperlipidemia model induced by a high-fat diet; type: in vivo; details: for High-density lipoprotein / Low-density lipoprotein / Total cholesterol / Triglyceride: serum, 16 weeks, n=8
Description: Experimental method: ApoE^−/− mice were fed with a high-fat and high-cholesterol feed to construct an ApoE^−/− mouse hyperlipidemia model. An SMI0 intervention group was divided into a low-dose intervention group and a high-dose intervention group, which were administered with the compound SMI0 at 30 mg/kg and 150 mg/kg every day from the beginning of modeling to the end of the 16-week modeling. At the end of the experiment, blood was collected from the orbit, and the levels of blood lipid-associated indexes in the serum of each mouse were determined by an automatic biochemical analyzer (8 mice in each group).

[7] = SMI0 intervention group, 8 weeks

**Q.** How did the “albumin (ALB2) level” value ([1]; SMI0 intervention group (30, 150 mg/kg ig before DEN; 150 mg/kg daily), 8 weeks) turn out when `CC(=O)c1scnc1C` [SMI0] was run?
**A.** The value was “significantly increased”.

**Q.** What about the “alanine aminotransferase (ALTL) level” value [1, 7] of the same compound?
**A.** Its value is “significantly reduced”.

**Q.** What about the “alkaline phosphatase (ALP) (ALP2S) level” value [1, 7] of the same compound?
**A.** The value was “significantly reduced”.

**Q.** And the “cholinesterase (CHE2) level” value [1, 7]?
**A.** Its value is “significantly increased”.

**Q.** And the “direct bilirubin (BILD2) level” value [1, 7]?
**A.** Its value is “significantly reduced”.

**Q.** And the “glutamyl transpeptidase (GGTI2) level” value [1, 7]?
**A.** Its value is “significantly reduced”.

**Q.** What about the “total bilirubin (BILT3) level” value [1, 7] of the same compound?
**A.** Its value is “significantly reduced”.

**Q.** What about the TP2 level ([1]; SMI0 low-dose group (30 mg/kg ig)) of the same compound?
**A.** Its TP2 level is “significantly increased”.

**Q.** And the “effect on the proliferation of Lewis lung cancer cells” value [2]?
**A.** The value was “no significant inhibitory effect”.

**Q.** And the “effect on the proliferation, migration, and apoptosis of H22 liver cancer cells” value [3]?
**A.** The value was “no significant inhibitory effect”.

**Q.** And the “proliferation of U251 cells” value [4]?
**A.** Its value is “significantly inhibited”.

**Q.** What about the “rat foot swelling alleviation rate” value ([5]; SMI0 1 mg/kg ig daily) of the same compound?
**A.** The value was 20.8%.

**Q.** What about the “rat foot swelling alleviation rate” value ([5]; SMI0 6 mg/kg ig daily) of the same compound?
**A.** The value was 34.2%.

**Q.** And the “rat foot swelling alleviation rate” value ([5]; SMI0 30 mg/kg ig daily)?
**A.** Its value is 44.1%.

**Q.** What about the “rat foot swelling alleviation rate” value ([5]; SMI0 150 mg/kg ig daily) of the same compound?
**A.** The value was 52.5%.

**Q.** What about the “rat foot swelling caused by CFA” value ([5]; SMI0 intervention group vs model group, P<0.001) of the same compound?
**A.** The value was “significantly alleviated”.

**Q.** And the “total area of aortic root lesions (HE staining)” value ([6]; SMI0 high-dose group 150 mg/kg vs model group, P<0.01)?
**A.** The value was “significantly reduced”.

**Q.** And the “total area of aortic root lesions (oil red O staining)” value ([6]; SMI0 high-dose group 150 mg/kg vs model group, P<0.05)?
**A.** The value was “significantly reduced”.

**Q.** What about the High-density lipoprotein ([6]; SMI0 30 mg/kg daily) of the same compound?
**A.** The High-density lipoprotein was 2.37 ± 0.49 mmol/L.

**Q.** What about the Low-density lipoprotein ([6]; SMI0 30 mg/kg daily) of the same compound?
**A.** The Low-density lipoprotein was 17.94 ± 11.16 mmol/L.

**Q.** What about the Total cholesterol ([6]; SMI0 30 mg/kg daily) of the same compound?
**A.** The Total cholesterol was 20.45 ± 10.77 mmol/L.

**Q.** What about the Triglyceride ([6]; SMI0 30 mg/kg daily) of the same compound?
**A.** The Triglyceride was 0.56 ± 0.04 mmol/L.

**Q.** And the High-density lipoprotein ([6]; SMI0 150 mg/kg daily)?
**A.** Its High-density lipoprotein is 3.68 ± 0.33*^@ mmol/L.

**Q.** What about the Low-density lipoprotein ([6]; SMI0 150 mg/kg daily) of the same compound?
**A.** The Low-density lipoprotein was 1.50 ± 0.77^@ mmol/L.

**Q.** What about the Total cholesterol ([6]; SMI0 150 mg/kg daily) of the same compound?
**A.** Its Total cholesterol is 5.35 ± 0.55^@ mmol/L.

**Q.** And the Triglyceride ([6]; SMI0 150 mg/kg daily)?
**A.** The Triglyceride was 0.40 ± 0.10 mmol/L.
